The assay has as its system naïve FluNP CD4 T cells. Kind of assay: Activation of naïve FluNP CD4 T cells by peptide-pulsed BMDC in vitro. The assay is classed as cell-based, mouse. Particulars: CD69, CD25, Nur77 assays, 2d in vitro.

In the case of “NP311–325: immunodominant, highly conserved IAV nucleoprotein (NP) epitope presented by I-A^b; parent peptide of the panel (QVYSLIRPNENPAHK)”, the “dose for peak responses, lower than the middle peptides (A7, K5)” value worked out at 100 fold.

Values taken from paper PMC10247507 (Journal of immunology (Baltimore, Md. : 1950), 2023).
